Columns and labels:
[1] = system: ISC-enriched organoids; assay: Primary screen, 384-well 2.5-D organoid differentiation (ENR+CD, 6 days): carbachol-induced lysozyme secretion (LYZ.S); type: cell-based, murine; details: for Dose.FC.LYZ.S: primary screen, ENR+CD 6 days, FC vs plate median
Text: (§1) High-throughput screening.

[2] = system: ISC-enriched organoids; assay: Primary screen, 384-well 2.5-D organoid differentiation (ENR+CD, 6 days, Target Selective Inhibitor Library, vs whole-plate median): ATP (CellTiter-Glo 3D, CTG); details: for Dose.FC.CTG / Z.CTG: primary screen; for Dose.FC.CTG: ENR+CD 6 days, FC vs plate median; for Z.CTG: standard z score of FC
[3] = system: ISC-enriched organoids; assay: Primary screen, 384-well 2.5-D organoid differentiation (ENR+CD, 6 days): basal lysozyme secretion (LYZ.NS); type: cell-based, murine; details: for Dose.FC.LYZ.NS / Z.LYZ.NS: primary screen; for Dose.FC.LYZ.NS: ENR+CD 6 days, FC vs plate median; for Z.LYZ.NS: standard z score of FC
Text: as §1

[4] = dose 0.08 uM (1st of 4 lines per treatment; dose not printed in this part)
[5] = dose 0.40 uM (2nd of 4 lines per treatment; dose not printed in this part)
[6] = dose 2.00 uM (3rd of 4 lines per treatment; dose not printed in this part)
[7] = dose 10.00 uM (4th of 4 lines per treatment; dose not printed in this part)

Compound	Dose.FC.LYZ.S ([1]; dose 0.08 uM)	Dose.FC.LYZ.S ([1]; dose 0.40 uM)	Dose.FC.LYZ.S ([1]; dose 2.00 uM)	Dose.FC.LYZ.S ([1]; dose 10.00 uM)	Dose.FC.CTG ([2]; dose 0.08 uM)	Z.CTG ([2]; dose 0.08 uM)	Dose.FC.CTG ([2]; dose 0.40 uM)	Z.CTG ([2]; dose 0.40 uM)	Dose.FC.CTG ([2]; dose 2.00 uM)	Z.CTG ([2]; dose 2.00 uM)	Dose.FC.CTG ([2]; dose 10.00 uM)	Z.CTG ([2]; dose 10.00 uM)	Dose.FC.LYZ.NS ([3]; dose 0.08 uM)	Z.LYZ.NS ([3]; dose 0.08 uM)	Dose.FC.LYZ.NS ([3]; dose 0.40 uM)	Z.LYZ.NS ([3]; dose 0.40 uM)	Dose.FC.LYZ.NS ([3]; dose 2.00 uM)	Z.LYZ.NS ([3]; dose 2.00 uM)	Dose.FC.LYZ.NS ([3]; dose 10.00 uM)	Z.LYZ.NS ([3]; dose 10.00 uM)	further results
N#Cc1c(O)c2c(-c3ccc(-c4ccccc4O)cc3)csc2[nH]c1=O [A-769662]	0.066 log 2 fold change	0.071 log 2 fold change	0.184 log 2 fold change	0.019 log 2 fold change	−0.074 log 2 fold change	−0.177	0.007 log 2 fold change	0.016	−0.127 log 2 fold change	−0.304	−0.015 log 2 fold change	−0.036	0.045 log 2 fold change	0.394	0.069 log 2 fold change	0.599	0.054 log 2 fold change	0.473	0.009 log 2 fold change	0.075	SSMD.LYZ.S_Rep (strictly standardized mean difference) [1, 4]: 0.365; Z.LYZ.S (standard z score) [1, 4]: 0.426; SSMD.LYZ.S_Rep (strictly standardized mean difference) [1, 5]: 0.472; Z.LYZ.S (standard z score) [1, 5]: 0.460; SSMD.LYZ.S_Rep (strictly standardized mean difference) [1, 6]: 0.488; Z.LYZ.S (standard z score) [1, 6]: 1.191; SSMD.LYZ.S_Rep (strictly standardized mean difference) [1, 7]: 0.119; Z.LYZ.S (standard z score) [1, 7]: 0.121; SSMD.CTG_Rep (strictly standardized mean difference) [2, 4]: −0.255; SSMD.CTG_Rep (strictly standardized mean difference) [2, 5]: 0.019; SSMD.CTG_Rep (strictly standardized mean difference) [2, 6]: −0.312; SSMD.CTG_Rep (strictly standardized mean difference) [2, 7]: −0.056; SSMD.LYZ.NS_Rep (strictly standardized mean difference) [3, 4]: 0.286; SSMD.LYZ.NS_Rep (strictly standardized mean difference) [3, 5]: 0.498; SSMD.LYZ.NS_Rep (strictly standardized mean difference) [3, 6]: 0.554; SSMD.LYZ.NS_Rep (strictly standardized mean difference) [3, 7]: 0.068
CC1(C)CCC(CN2CCN(c3ccc(C(=O)NS(=O)(=O)c4ccc(NCC5CCOCC5)c([N+](=O)[O-])c4)c(Oc4cnc5[nH]ccc5c4)c3)CC2)=C(c2ccc(Cl)cc2)C1 [ABT-199 (GDC-0199)]	−0.044 log 2 fold change	0.076 log 2 fold change	−0.063 log 2 fold change	−0.292 log 2 fold change	0.019 log 2 fold change	0.045	0.038 log 2 fold change	0.090	−0.278 log 2 fold change	−0.665	−0.519 log 2 fold change	−1.240	−0.002 log 2 fold change	−0.013	−0.029 log 2 fold change	−0.251	−0.016 log 2 fold change	−0.136	−0.169 log 2 fold change	−1.471	SSMD.LYZ.S_Rep (strictly standardized mean difference) [1, 4]: −0.260; Z.LYZ.S (standard z score) [1, 4]: −0.285; SSMD.LYZ.S_Rep (strictly standardized mean difference) [1, 5]: 0.443; Z.LYZ.S (standard z score) [1, 5]: 0.494; SSMD.LYZ.S_Rep (strictly standardized mean difference) [1, 6]: −0.368; Z.LYZ.S (standard z score) [1, 6]: −0.404; SSMD.LYZ.S_Rep (strictly standardized mean difference) [1, 7]: −1.131; Z.LYZ.S (standard z score) [1, 7]: −1.890; SSMD.CTG_Rep (strictly standardized mean difference) [2, 4]: 0.051; SSMD.CTG_Rep (strictly standardized mean difference) [2, 5]: 0.111; SSMD.CTG_Rep (strictly standardized mean difference) [2, 6]: −0.377; SSMD.CTG_Rep (strictly standardized mean difference) [2, 7]: −1.402; SSMD.LYZ.NS_Rep (strictly standardized mean difference) [3, 4]: −0.009; SSMD.LYZ.NS_Rep (strictly standardized mean difference) [3, 5]: −0.192; SSMD.LYZ.NS_Rep (strictly standardized mean difference) [3, 6]: −0.116; SSMD.LYZ.NS_Rep (strictly standardized mean difference) [3, 7]: −0.810
CC1(C)CCC(c2ccc(Cl)cc2)=C(CN2CCN(c3ccc(C(=O)NS(=O)(=O)c4ccc(N[C@H](CCN5CCOCC5)CSc5ccccc5)c(S(=O)(=O)C(F)(F)F)c4)cc3)CC2)C1 [ABT-263 (Navitoclax)]	−0.010 log 2 fold change	−0.020 log 2 fold change	−0.205 log 2 fold change	−0.400 log 2 fold change	−0.212 log 2 fold change	−0.507	−0.264 log 2 fold change	−0.631	−0.368 log 2 fold change	−0.878	−0.962 log 2 fold change	−2.298	0.012 log 2 fold change	0.104	0.007 log 2 fold change	0.062	−0.143 log 2 fold change	−1.248	−0.259 log 2 fold change	−2.259	SSMD.LYZ.S_Rep (strictly standardized mean difference) [1, 4]: −0.041; Z.LYZ.S (standard z score) [1, 4]: −0.064; SSMD.LYZ.S_Rep (strictly standardized mean difference) [1, 5]: −0.134; Z.LYZ.S (standard z score) [1, 5]: −0.129; SSMD.CTG_Rep (strictly standardized mean difference) [2, 4]: −0.462; SSMD.CTG_Rep (strictly standardized mean difference) [2, 5]: −0.777; SSMD.LYZ.NS_Rep (strictly standardized mean difference) [3, 4]: 0.062; SSMD.LYZ.NS_Rep (strictly standardized mean difference) [3, 5]: 0.062
O=C(c1ccc(F)cc1)N1CCC[C@H](c2nc(-c3ccc(F)cc3)no2)C1 [ADX-47273]	0.147 log 2 fold change	0.147 log 2 fold change	−0.039 log 2 fold change	−0.070 log 2 fold change	0.115 log 2 fold change	0.274	−0.034 log 2 fold change	−0.082	−0.210 log 2 fold change	−0.501	−0.039 log 2 fold change	−0.094	0.269 log 2 fold change	2.346	0.053 log 2 fold change	0.457	−0.033 log 2 fold change	−0.286	−0.036 log 2 fold change	−0.311	–
